The results in this text go back to paper PMC3639963, “A New Class of Small Molecule Inhibitor of BMP Signaling” (PLoS ONE, 2013).

As a reminder, the inhibition is the drop in the measured response relative to a control, in per cent.

What all share (test): Nanosyn kinase profiling
Common to all, as to type: biochemical
Common to all, as to details: read-out: Percentage inhibition; for inhibition at 0.1 µM: 0.1 µM inhibitor; for inhibition at 1 µM: 1 µM inhibitor

One test concerns the target T1, CDK6/cycD3 (Homo sapiens, UniProt Q00534).
T1 construct: purchased Nanosyn (enzymatic panel); SGC in-house recombinant human kinases (DSF panel); Invitrogen (ALK1-6)
The method, boiled down: (§1)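 Percent inhibition of each kinase was measured with the inhibitor at 0.1 µM and at 1 µM, as part of a 200-kinase human selectivity panel.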

The target of a further test is T2, JAK2 (Homo sapiens, UniProt O60674).
T2 construct: purchased Nanosyn (enzymatic panel); SGC in-house recombinant human kinases (DSF panel); Invitrogen (ALK1-6)
The method, boiled down: as §1

A further test has as its target T3, MER (Homo sapiens, UniProt Q12866).
T3 construct: purchased Nanosyn (enzymatic panel); SGC in-house recombinant human kinases (DSF panel); Invitrogen (ALK1-6)
T3 sequence (Q12866 21-999): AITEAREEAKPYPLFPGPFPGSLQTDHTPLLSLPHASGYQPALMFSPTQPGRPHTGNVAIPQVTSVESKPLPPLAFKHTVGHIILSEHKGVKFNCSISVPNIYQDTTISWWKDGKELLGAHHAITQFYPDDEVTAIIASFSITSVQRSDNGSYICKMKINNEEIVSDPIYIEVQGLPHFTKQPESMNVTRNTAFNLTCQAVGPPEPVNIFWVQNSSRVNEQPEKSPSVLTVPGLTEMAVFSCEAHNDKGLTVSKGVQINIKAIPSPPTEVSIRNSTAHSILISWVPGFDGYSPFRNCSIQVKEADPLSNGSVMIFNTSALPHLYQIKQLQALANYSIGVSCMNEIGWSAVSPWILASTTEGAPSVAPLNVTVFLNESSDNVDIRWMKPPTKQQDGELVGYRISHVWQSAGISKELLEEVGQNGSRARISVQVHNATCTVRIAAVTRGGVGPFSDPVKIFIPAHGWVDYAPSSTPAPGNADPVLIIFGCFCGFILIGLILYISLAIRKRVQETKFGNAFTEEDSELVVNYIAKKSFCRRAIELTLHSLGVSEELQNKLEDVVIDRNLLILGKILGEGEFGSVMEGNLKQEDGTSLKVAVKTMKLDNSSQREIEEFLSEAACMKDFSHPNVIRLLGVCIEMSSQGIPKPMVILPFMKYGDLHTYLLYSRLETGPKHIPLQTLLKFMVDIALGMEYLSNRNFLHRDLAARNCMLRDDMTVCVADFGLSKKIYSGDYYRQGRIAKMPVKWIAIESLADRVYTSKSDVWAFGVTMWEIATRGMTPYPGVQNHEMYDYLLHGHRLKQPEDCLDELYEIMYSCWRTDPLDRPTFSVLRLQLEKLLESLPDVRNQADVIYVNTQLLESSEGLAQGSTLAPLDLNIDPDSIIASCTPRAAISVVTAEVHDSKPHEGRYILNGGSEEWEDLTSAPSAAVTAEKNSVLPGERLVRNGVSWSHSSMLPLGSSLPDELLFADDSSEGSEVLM
The gist of the method: as §1

For the next test, the target named is T4, MSK1 (Homo sapiens, UniProt O75582).
T4 construct: purchased Nanosyn (enzymatic panel); SGC in-house recombinant human kinases (DSF panel); Invitrogen (ALK1-6)
The gist of the method: as §1

The next test deals with T5, PAR1Bα (Homo sapiens, UniProt Q7KZI7).
T5 construct: purchased Nanosyn (enzymatic panel); SGC in-house recombinant human kinases (DSF panel); Invitrogen (ALK1-6)
The gist of the method: as §1

In the next test the target is T6, PRKD2 (Homo sapiens, UniProt Q9BZL6).
T6 construct: purchased Nanosyn (enzymatic panel); SGC in-house recombinant human kinases (DSF panel); Invitrogen (ALK1-6)
T6 sequence (Q9BZL6 1-878): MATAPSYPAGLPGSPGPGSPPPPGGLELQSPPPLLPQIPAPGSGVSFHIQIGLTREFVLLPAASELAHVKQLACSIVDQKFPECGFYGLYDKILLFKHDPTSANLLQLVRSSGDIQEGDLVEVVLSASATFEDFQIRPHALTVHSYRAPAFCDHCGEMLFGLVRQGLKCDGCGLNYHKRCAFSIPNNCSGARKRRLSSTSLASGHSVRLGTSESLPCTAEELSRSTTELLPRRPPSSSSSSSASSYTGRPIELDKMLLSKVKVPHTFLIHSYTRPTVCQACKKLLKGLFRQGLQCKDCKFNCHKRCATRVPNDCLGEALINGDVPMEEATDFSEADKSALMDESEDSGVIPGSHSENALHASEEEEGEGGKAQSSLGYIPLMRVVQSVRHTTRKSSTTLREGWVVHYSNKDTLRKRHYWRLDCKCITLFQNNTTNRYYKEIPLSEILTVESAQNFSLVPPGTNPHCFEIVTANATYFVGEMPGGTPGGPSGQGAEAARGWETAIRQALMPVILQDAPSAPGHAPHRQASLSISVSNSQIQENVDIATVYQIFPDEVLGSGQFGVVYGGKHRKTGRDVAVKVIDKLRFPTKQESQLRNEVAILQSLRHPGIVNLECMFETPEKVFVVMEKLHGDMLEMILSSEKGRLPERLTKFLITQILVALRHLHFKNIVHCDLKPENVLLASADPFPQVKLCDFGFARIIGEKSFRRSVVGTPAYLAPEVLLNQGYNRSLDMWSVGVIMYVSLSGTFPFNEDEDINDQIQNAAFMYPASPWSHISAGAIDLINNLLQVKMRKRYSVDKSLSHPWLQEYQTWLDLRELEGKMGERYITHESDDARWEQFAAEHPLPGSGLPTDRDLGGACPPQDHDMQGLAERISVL
The gist of the method: as §1

In the next test the target is T7, PRKX (Homo sapiens, UniProt P51817).
T7 construct: purchased Nanosyn (enzymatic panel); SGC in-house recombinant human kinases (DSF panel); Invitrogen (ALK1-6)
T7 sequence (P51817 1-358): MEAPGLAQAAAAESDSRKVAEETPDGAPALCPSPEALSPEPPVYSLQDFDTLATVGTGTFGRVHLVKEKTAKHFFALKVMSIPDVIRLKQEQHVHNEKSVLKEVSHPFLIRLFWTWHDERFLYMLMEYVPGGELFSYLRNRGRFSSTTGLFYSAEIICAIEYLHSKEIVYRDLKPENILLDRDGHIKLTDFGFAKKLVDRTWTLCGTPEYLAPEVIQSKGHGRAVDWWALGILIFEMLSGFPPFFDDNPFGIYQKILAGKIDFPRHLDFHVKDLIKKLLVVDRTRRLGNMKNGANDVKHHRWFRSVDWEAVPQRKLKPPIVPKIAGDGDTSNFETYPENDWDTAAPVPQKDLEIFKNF
The method, boiled down:
as §1

T2 sequence (O60674 whole entry): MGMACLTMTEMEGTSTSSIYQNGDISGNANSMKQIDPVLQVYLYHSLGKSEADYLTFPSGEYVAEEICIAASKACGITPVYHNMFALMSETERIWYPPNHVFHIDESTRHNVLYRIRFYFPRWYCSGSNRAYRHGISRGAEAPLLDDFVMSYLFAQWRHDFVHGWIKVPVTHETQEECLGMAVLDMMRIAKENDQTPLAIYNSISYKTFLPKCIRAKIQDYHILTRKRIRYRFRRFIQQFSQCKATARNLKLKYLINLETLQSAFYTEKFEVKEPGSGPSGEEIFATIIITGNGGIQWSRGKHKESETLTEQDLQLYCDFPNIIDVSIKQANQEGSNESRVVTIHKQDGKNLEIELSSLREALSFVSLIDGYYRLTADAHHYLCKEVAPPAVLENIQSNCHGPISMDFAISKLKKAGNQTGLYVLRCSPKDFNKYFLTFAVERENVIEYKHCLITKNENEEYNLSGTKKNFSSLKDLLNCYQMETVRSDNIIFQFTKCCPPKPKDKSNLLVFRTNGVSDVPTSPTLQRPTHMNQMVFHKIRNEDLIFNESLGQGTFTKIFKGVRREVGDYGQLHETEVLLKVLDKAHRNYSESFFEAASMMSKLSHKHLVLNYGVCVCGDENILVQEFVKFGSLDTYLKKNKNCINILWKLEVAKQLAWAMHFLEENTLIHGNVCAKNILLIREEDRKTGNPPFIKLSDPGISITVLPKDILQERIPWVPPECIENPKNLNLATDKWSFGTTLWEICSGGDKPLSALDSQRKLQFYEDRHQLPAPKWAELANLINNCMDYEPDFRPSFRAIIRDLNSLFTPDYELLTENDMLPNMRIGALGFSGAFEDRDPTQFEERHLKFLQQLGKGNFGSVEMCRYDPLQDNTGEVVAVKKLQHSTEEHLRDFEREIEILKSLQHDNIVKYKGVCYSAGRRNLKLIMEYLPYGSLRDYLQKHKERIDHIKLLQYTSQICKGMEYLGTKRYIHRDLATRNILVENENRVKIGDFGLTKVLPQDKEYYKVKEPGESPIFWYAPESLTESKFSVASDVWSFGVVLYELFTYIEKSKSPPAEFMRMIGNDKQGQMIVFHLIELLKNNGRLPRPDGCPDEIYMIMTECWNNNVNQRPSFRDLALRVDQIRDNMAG
T1 sequence (Q00534 whole entry): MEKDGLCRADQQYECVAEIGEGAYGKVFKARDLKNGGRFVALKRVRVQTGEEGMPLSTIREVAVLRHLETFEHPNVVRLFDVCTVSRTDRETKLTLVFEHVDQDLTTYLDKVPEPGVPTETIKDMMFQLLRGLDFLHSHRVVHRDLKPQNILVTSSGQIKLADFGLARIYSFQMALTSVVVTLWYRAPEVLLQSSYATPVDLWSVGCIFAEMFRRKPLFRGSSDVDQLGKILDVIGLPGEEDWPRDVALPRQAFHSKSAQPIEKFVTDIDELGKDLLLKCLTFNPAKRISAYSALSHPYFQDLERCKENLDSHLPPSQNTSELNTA
T1 sequence (P30281 whole entry partner): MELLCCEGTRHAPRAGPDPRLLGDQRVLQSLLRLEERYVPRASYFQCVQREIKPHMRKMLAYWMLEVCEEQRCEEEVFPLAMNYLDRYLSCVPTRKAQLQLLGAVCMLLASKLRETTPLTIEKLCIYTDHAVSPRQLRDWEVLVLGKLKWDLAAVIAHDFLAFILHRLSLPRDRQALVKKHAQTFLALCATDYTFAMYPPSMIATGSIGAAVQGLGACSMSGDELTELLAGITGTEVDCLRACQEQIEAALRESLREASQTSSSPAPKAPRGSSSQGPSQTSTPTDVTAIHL
T4 sequence (O75582 whole entry): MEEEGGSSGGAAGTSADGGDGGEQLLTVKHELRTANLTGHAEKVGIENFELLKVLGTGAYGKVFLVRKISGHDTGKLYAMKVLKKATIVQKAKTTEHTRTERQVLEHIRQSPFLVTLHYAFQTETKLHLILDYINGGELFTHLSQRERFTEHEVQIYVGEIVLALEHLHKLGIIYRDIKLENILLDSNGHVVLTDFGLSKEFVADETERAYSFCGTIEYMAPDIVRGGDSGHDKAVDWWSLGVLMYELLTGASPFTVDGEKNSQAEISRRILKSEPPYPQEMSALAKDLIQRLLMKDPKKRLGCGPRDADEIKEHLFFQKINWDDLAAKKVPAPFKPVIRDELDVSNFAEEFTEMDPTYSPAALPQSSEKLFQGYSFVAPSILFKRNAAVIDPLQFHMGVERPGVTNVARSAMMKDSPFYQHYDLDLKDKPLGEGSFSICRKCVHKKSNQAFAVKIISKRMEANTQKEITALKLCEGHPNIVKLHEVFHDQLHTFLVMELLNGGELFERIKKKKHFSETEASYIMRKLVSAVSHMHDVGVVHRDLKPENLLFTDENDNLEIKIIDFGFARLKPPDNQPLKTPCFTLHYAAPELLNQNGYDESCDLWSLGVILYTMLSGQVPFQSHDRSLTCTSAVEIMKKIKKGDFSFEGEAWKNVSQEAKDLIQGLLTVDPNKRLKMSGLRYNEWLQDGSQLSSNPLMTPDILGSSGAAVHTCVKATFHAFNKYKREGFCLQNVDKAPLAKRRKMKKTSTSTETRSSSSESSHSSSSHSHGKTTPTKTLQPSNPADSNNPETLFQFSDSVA
T5 sequence (Q7KZI7 1-725 isoform Q7KZI7-4): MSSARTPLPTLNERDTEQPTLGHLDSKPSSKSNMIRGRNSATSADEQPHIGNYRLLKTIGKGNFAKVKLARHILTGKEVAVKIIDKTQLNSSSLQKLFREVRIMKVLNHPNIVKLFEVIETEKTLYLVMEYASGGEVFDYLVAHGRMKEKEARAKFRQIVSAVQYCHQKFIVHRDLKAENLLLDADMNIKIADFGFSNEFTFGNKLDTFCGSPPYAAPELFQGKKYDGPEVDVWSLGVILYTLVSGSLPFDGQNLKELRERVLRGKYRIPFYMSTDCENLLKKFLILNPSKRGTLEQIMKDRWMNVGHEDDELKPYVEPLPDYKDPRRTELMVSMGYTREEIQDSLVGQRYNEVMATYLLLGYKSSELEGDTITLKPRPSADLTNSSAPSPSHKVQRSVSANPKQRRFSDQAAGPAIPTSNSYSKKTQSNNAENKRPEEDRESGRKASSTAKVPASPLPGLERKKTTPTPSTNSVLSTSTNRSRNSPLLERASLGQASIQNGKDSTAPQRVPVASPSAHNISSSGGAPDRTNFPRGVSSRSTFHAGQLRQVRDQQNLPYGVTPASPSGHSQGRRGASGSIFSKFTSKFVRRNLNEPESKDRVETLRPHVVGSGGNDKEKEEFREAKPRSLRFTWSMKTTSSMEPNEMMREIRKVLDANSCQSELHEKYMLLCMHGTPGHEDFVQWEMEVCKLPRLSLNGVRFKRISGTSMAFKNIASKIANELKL

As for `COc1cc(-c2cc(-c3cccc(O)c3)cnc2N)cc(OC)c1OC` [K02288, 3-[6-amino-5-(3,4,5-trimethoxy-phenyl)-pyridin-3-yl]-phenol], the inhibition at 0.1 µM at CDK6/cycD3 is 1.7%; at JAK2, 0%; at MER, 5.1%; at MSK1 it was -2%; on PAR1Bα, 2.3%; at PRKD2 it was 0.6%. For the same compound, the inhibition at 0.1 µM on PRKX is -1%. In addition, the inhibition at 1 µM at CDK6/cycD3 was 2.8%; at JAK2, 0%; at MER it was 40%; at MSK1 it was -1%; at PAR1Bα, 7%; at PRKD2, 6.6%. Moreover, the inhibition at 1 µM at PRKX was -1%.

With `c1ccc2c(-c3cnn4cc(-c5ccc(N6CCNCC6)cc5)cnc34)ccnc2c1` [LDN-193189], the inhibition at 0.1 µM on CDK6/cycD3 stood at 7.2%; on JAK2, 2%; at MER, 4.4%; on MSK1, 1.1%; on PAR1Bα, 6.9%; at PRKD2 it was 4.5%. In addition, the inhibition at 0.1 µM on PRKX stood at 0.2%. The inhibition at 1 µM on CDK6/cycD3 was 22%; at JAK2, 0.5%; on MER, 10%; on MSK1, 1.3%; on PAR1Bα, 43%; on PRKD2, 13%. In addition, the inhibition at 1 µM on PRKX turned out to be 1.2%.
